Test system: orthotopic LM2-4luc breast cancer xenografts
Test: orthotopic LM2-4luc xenografts, unresected: primary tumor and spontaneous metastasis
Format: in vivo, human LM2-4luc cells in CB-17 SCID mice
Conditions: for primary tumor growth: VT from 10DPI, SU 7 days from 17DPI, n = 8, volume or bioluminescence, Fig5A–C
Text: The first experiment involved VT and SU treatments in the presence of an unresected primary tumor (Fig5). At 10 days post-implantation (DPI), when primary tumors reached an average size of ∽175 mm^3, mice were randomized into groups and chronic VT therapy was initiated. At 17DPI, when tumors reached an average size (∽400 mm^3) where tumor debulking is typically required for long-term metastasis experiments, a 7-day anti-angiogenic SU treatment was initiated in lieu of surgical resection.
In vivo experiments were performed in strict accordance with protocols approved by the Sunnybrook Research Institute Animal Care Committee, accredited by the Canadian Council of Animal Care. All surgical, imaging, and euthanasia procedures were performed under inhaled isoflurane anesthesia. Experimental metastasis models involved injections of 10^6 tumor cells, suspended in 200 μl serum-free DMEM, into the mouse tail vein. LM2-4^luc implantations were performed on 6 to 8-week-old female CB-17 SCID mice (Charles River Canada). HT29^luc implantations were performed on 19- to 20-week-old male and 11- to 12-week-old female YFP-SCID mice (bred in-house). SN12^luc implantations were performed on 9-week-old male YFP-SCID mice. Spontaneous metastasis models involved orthotopic implantations of 2 × 10^6 LM2-4^luc cells/50 μl serum-free DMEM in the right inguinal mammary fat pads of 6-week-old female CB-17 SCID mice.
Sunitinib malate (SU), from Pfizer or LC Laboratories, and its vehicle were formulated as described before (Ebos et al, [2009]). SU was administered by oral gavage (PO), once daily, at a dose of 60 mg/kg mouse weight. Vasculotide (VT): VT synthesized at the Sunnybrook Research Institute (Toronto, ON, Canada) was used in experiments described in Fig2(A–D) and Supplementary Fig S5(A and B). VT synthesized by American Peptide (Sunnyvale, CA, USA) was used in experiments described in Fig5. VT synthesized by Bachem UK Ltd was used in experiments described in Figs1, 2(E–H), 3, 4, 6–9, Supplementary Figs S2, and S5(C and D). Lyophilized product was reconstituted in PBS to 500 μg/500 μl stock aliquots and stored at −80°C. As needed, stock aliquots were diluted with PBS to a 250 ng/50 μl working concentration and stored in 0.4–1 ml aliquots at −80°C. VT (at a standard dose of 250 ng/mouse) or its vehicle (PBS) was administered to mice by intraperitoneal (IP) injections every other day.
5. Bioluminescence imaging (BI) of tumor burden
For in vivo BI: Mice were injected intraperitoneally with 150mg/kg luciferin (Promega) 10 minutes prior to and anesthetized with isofluorane just before luminescent pseudocolor imaging (uniform settings: CCD camera locked at -105 °C, exposure=60s, f/1, subject size=1.5cm, bin=8, FOV=23.2cm, full image correction) using the IVIS 200 Imaging System (Caliper/PerkinElmer). Using the Living Image software (v2.50.1, Xenogen), weekly images were analyzed under uniform color range on grayscale photographic overlay. Total fluxes (photons/sec) were quantified within consistent regions of interest and statistically compared ideally at a timepoint before any deaths have occurred.
For ex vivo BI: Mice were sacrificed at 7 mins after luciferin injections, then organs of interest were dissected and individually placed within 24-well plates for imaging at 10 min post-luciferin injection.
6. Immunohistochemical (IHC) analysis of lung metastases
Surgically dissected lungs were fixed in 4% paraformaldehyde (PFA) overnight and stored in 70% ethanol. Three paraffin-embedded cross-sections per lung, 5-μm thick, 60 μ m apart, were subjected to IHC staining using a serum-free protein block (Dako X0909), an anti-human vimentin antibody (clone V9, Invitrogen 18-0052; 1:100 in Dako S3022 diluent), the universal ‘LSAB+, HRP’ detection kit (Dako K0690), the DAB+ chromogen-substrate system (Dako K3467) and hematoxylin counterstain.
Quantification procedure involved visual survey of entire tissue sections and tallying of DAB-stained […]

[1] = 39DPI, SU 1wk with or without VT, Fig5F

Row | Compound | incidence of lung metastases (ex vivo bioluminescent imaging) [1] | incidence of lymph node metastases (ex vivo bioluminescent imaging) [1] | primary tumor burden by volume (SU 7-day, one-way ANOVA, Fig5B) | primary tumor burden by bioluminescent activity (SU 7-day, one-way ANOVA, Fig5C) | primary tumor growth | incidence of lymph node metastases (ex vivo bioluminescent imaging) (32DPI, vehicle 2/8, Fig5F) | incidence of lung metastases (ex vivo bioluminescent imaging) (32DPI, vehicle 6/8, Fig5F) | mean thickness of the viable peripheral regions of primary tumors (H&E) (22 days of VT treatment, Fig5D) | mean thickness of the CAIX+ hypoxic edge of primary tumors (22 days of VT treatment, Fig5E) | lung metastatic nodule size distribution (human vimentin IHC) (VT monotherapy, P = 0.05–0.09, Fig5G) | anti-metastatic benefit of concurrent VT treatment by regional IHC analysis (VT with SU, Fig5G) | metastatic involvement in the lungs (EVBI) (VT-treated groups vs vehicle or SU monotherapy, Fig5F)
1 | CCN(CC)CCNC(=O)c1c(C)[nH]c(/C=C2\C(=O)Nc3ccc(F)cc32)c1C [sunitinib, reference compound] | 4/8 | 4/8 | significantly lowered primary tumor burden | significantly lowered primary tumor burden | effectively stabilized primary tumor growth |  |  |  |  |  |  | 
2 | CHHHRHSF [Vasculotide, 4-armed maleimide-functionalized polyethylene glycol (PEG) backbone to link together four cysteine-capped T7 peptides, that is, CHHHRHSF] |  |  |  |  | did not alter the growth kinetics of primary tumors | 1/8 | 2/8 | did not alter the mean thickness of the viable peripheral regions | did not alter the mean thickness of the CAIX^+ hypoxic edge | delayed the seeding or progression of lung micrometastases | not detectable by regional IHC analysis | trends of reduced incidences of metastatic involvement in the lungs, but no change in the lymph nodes

Reference: paper PMC4459817, “Vasculotide reduces endothelial permeability and tumor cell extravasation in the absence of binding to or agonistic activation of Tie2” (EMBO Molecular Medicine, 2015)
